Experimental findings from patent publication US12103920B2, “Cereblon binding compounds, compositions thereof, and methods of treatment therewith” (Celgene Corporation, priority 2020, dated 2024) are described below.

Where a name gives a salt, the structure may show the parent alone.

In this assay the target is T1, AR protein in VCaP cells (Homo sapiens, UniProt P10275).
T1 construct: endogenous in cells; host or cells: VCaP cells
T1 sequence (P10275 1-920): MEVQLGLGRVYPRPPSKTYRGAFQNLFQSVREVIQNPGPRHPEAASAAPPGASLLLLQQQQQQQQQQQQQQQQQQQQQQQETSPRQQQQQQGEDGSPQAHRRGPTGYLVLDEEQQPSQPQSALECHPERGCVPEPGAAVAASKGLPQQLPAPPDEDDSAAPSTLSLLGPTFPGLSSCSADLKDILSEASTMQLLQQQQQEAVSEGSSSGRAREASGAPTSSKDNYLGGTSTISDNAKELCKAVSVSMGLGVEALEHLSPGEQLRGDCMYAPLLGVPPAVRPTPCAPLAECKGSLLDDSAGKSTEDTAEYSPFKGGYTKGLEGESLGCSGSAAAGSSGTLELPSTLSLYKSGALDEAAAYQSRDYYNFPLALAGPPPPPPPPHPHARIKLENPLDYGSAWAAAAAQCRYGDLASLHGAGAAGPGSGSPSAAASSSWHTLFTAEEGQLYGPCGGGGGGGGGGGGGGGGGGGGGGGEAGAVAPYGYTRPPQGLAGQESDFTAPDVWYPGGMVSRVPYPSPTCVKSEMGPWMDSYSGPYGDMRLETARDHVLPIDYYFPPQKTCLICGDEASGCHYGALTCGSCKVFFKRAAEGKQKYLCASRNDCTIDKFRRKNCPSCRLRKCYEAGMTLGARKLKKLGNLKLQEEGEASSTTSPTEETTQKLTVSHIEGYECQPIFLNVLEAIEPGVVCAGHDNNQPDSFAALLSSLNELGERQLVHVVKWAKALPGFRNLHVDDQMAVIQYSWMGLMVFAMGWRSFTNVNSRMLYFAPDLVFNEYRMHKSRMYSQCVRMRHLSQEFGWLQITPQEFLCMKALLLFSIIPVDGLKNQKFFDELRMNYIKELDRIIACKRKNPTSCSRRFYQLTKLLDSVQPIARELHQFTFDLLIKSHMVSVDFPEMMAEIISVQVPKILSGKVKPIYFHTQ
Put plainly: VCAP AR Degradation Assay. Type of assay: cell-based. The note with it: 24 h, AR ELISA; for DC50: concentration at 50% of DMSO control (50% AR degradation); for Y: lowest measured AR level normalized to DMSO control. A digest of the protocol: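 VCaP cells in DMEM with 8% FBS were treated 24 h at 37° C with a 10-point 1:3 series (top final 5 μM; 0.1% DMSO control). AR in lysates was measured by sandwich ELISA, normalized to DMSO as percent of control; DC50, EC50 and Ymin came from a four-parameter logistic fit.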

As for `C[C@@H]1CN(CCO[C@H]2CC[C@H](N3C(=S)N(c4cnc(C#N)c(C(F)(F)F)c4)C(=O)C3(C)C)CC2)C[C@H](C)N1CC(=O)Nc1cccc(N[C@H]2CCC(=O)NC2=O)c1` [Cmpd 47, 2-((2R,6S)-4-(2-(((trans)-4-(3-(6-Cyano-5-(trifluoromethyl)pyridin-3-yl)-5,5-dimethyl-4-oxo-2-thioxoimidazolidin-1-yl)cyclohexyl)oxy)ethyl)-2,6-dimethylpiperazin-1-yl)-N-(3-(((S)-2,6-dioxopiperidin-3-yl)amino)phenyl)acetamide], the half-maximal degradation concentration (DC50) is below 1000 nM and the Y result is on record as “* (0<Y≤15%)”.
Take `CC1(C)C(=O)N(c2ccc(C#N)c(C(F)(F)F)c2)C(=S)N1[C@H]1CC[C@H](OCCN2CCN(CC(=O)Nc3cc(F)cc(NC4CCC(=O)NC4=O)c3)[C@@H](C(F)(F)F)C2)CC1` (stereo partly drawn) [Cmpd 23, 2-((R)-4-(2-(((trans)-4-(3-(4-Cyano-3-(trifluoromethyl)phenyl)-5,5-dimethyl-4-oxo-2-thioxoimidazolidin-1-yl)cyclohexyl)oxy)ethyl)-2-(trifluoromethyl)piperazin-1-yl)-N-(3-((2,6-dioxopiperidin-3-yl)amino)-5-fluorophenyl)acetamide]: the DC50 was 5 to 10 nM and the Y result is “* (0<Y≤15%)”.
For `CC1(C)C(=O)N(c2cnc(C#N)c(C(F)(F)F)c2)C(=S)N1[C@H]1CC[C@H](OCCN2CCN(CC(=O)Nc3cc(F)cc(NC4CCC(=O)NC4=O)c3)[C@@H](C(F)(F)F)C2)CC1` (stereo partly drawn) [Cmpd 24, 2-((R)-4-(2-(((trans)-4-(3-(6-Cyano-5-(trifluoromethyl)pyridin-3-yl)-5,5-dimethyl-4-oxo-2-thioxoimidazolidin-1-yl)cyclohexyl)oxy)ethyl)-2-(trifluoromethyl)piperazin-1-yl)-N-(3-((2,6-dioxopiperidin-3-yl)amino)-5-fluorophenyl)acetamide], in that order: at most 5 nM and “* (0<Y≤15%)”.
Taken in the same sequence, the figures for `C[C@@H]1CN(CCCC[C@H]2CC[C@H](N3C(=S)N(c4ccc(C#N)c(C(F)(F)F)c4)C(=O)C3(C)C)CC2)C[C@H](C)N1CC(=O)Nc1cccc(NC2CCC(=O)NC2=O)c1` (stereo partly drawn) [Cmpd 17, 2-((2R,6S)-4-(4-(trans-4-(3-(4-Cyano-3-(trifluoromethyl)phenyl)-5,5-dimethyl-4-oxo-2-thioxoimidazolidin-1-yl)cyclohexyl)butyl)-2,6-dimethylpiperazin-1-yl)-N-(3-((2,6-dioxopiperidin-3-yl)amino)phenyl)acetamide hydrochloride] were 10 to 100 nM and “*** (25%<Y<50%)”.
Taken in the same sequence, the figures for `C[C@@H]1CN(CCC[C@H]2CC[C@H](N3C(=S)N(c4ccc(C#N)c(C(F)(F)F)c4)C(=O)C3(C)C)CC2)C[C@H](C)N1CC(=O)Nc1cccc(N[C@@H]2CCC(=O)NC2=O)c1` [Cmpd 6, 2-((2R,6S)-4-(3-(trans-4-(3-(4-Cyano-3-(trifluoromethyl)phenyl)-5,5-dimethyl-4-oxo-2-thioxoimidazolidin-1-yl)cyclohexyl)propyl)-2,6-dimethylpiperazin-1-yl)-N-(3-(((R)-2,6-dioxopiperidin-3-yl)amino)phenyl)acetamide hydrochloride] were 5 to 10 nM and “* (0<Y≤15%)”.
With `CC1(C)C(=O)N(c2cnc(C#N)c(C(F)(F)F)c2)C(=S)N1[C@H]1CC[C@H](OCCN2CCN(CC(=O)Nc3cccc(N[C@@H]4CCC(=O)NC4=O)c3)[C@@H](C(F)(F)F)C2)CC1` [Cmpd 42, 2-((R)-4-(2-(((trans)-4-(3-(6-Cyano-5-(trifluoromethyl)pyridin-3-yl)-5,5-dimethyl-4-oxo-2-thioxoimidazolidin-1-yl)cyclohexyl)oxy)ethyl)-2-(trifluoromethyl)piperazin-1-yl)-N-(3-(((R)-2,6-dioxopiperidin-3-yl)amino)phenyl)acetamide hydrochloride], the DC50 was at most 5 nM and the Y entry was “* (0<Y≤15%)”.
Consider `C[C@@H]1CN(CCC[C@H]2CC[C@H](N3C(=S)N(c4ccc(C#N)c(Cl)c4)C(=O)C3(C)C)CC2)C[C@H](C)N1CC(=O)Nc1cccc(NC2CCC(=O)NC2=O)c1` (stereo partly drawn) [Cmpd 14, 2-((2S,6R)-4-(3-(trans-4-(3-(3-Chloro-4-cyanophenyl)-5,5-dimethyl-4-oxo-2-thioxoimidazolidin-1-yl)cyclohexyl)propyl)-2,6-dimethylpiperazin-1-yl)-N-(3-((2,6-dioxopiperidin-3-yl)amino)phenyl)acetamide hydrochloride], for which the DC50 was in the range of 10 to 100 nM and the Y entry is “*** (25%<Y<50%)”.
Taken in the same sequence, the figures for `C[C@@H]1CN(CCO[C@H]2CC[C@H](N3C(=S)N(c4ccc(C#N)c(C(F)(F)F)c4)C(=O)C3(C)C)CC2)C[C@H](C)N1CC(=O)Nc1cccc(NC2CCC(=O)NC2=O)c1` (stereo partly drawn) [Cmpd 1, 2-((2R,6S)-4-(2-((trans-4-(3-(4-Cyano-3-(trifluoromethyl)phenyl)-5,5-dimethyl-4-oxo-2-thioxoimidazolidin-1-yl)cyclohexyl)oxy)ethyl)-2,6-dimethylpiperazin-1-yl)-N-(3-((2,6-dioxopiperidin-3-yl)amino)phenyl)acetamide] were 5 to 10 nM and “*** (25%<Y<50%)”.
For `C[C@@H]1C[C@H](OCCO[C@H]2CC[C@H](N3C(=S)N(c4cnc(C#N)c(C(F)(F)F)c4)C(=O)C3(C)C)CC2)C[C@H](C)N1CC(=O)Nc1cccc(NC2CCC(=O)NC2=O)c1` (stereo partly drawn) [Cmpd 45, 2-((2R,4r,6S)-4-(2-(((trans)-4-(3-(6-Cyano-5-(trifluoromethyl)pyridin-3-yl)-5,5-dimethyl-4-oxo-2-thioxoimidazolidin-1-yl)cyclohexyl)oxy)ethoxy)-2,6-dimethylpiperidin-1-yl)-N-(3-((2,6-dioxopiperidin-3-yl)amino)phenyl)acetamide], in that order: at most 5 nM and “** (15%<Y≤20%)”.
For `C[C@@H]1C[C@H](OCCO[C@H]2CC[C@H](N3C(=S)N(c4ccc(C#N)c(C(F)(F)F)c4)C(=O)C3(C)C)CC2)C[C@H](C)N1CC(=O)Nc1cccc(NC2CCC(=O)NC2=O)c1` (stereo partly drawn) [Cmpd 43, 2-((2R,4r,6S)-4-(2-(((trans)-4-(3-(4-Cyano-3-(trifluoromethyl)phenyl)-5,5-dimethyl-4-oxo-2-thioxoimidazolidin-1-yl)cyclohexyl)oxy)ethoxy)-2,6-dimethylpiperidin-1-yl)-N-(3-((2,6-dioxopiperidin-3-yl)amino)phenyl)acetamide], in that order: 5 to 10 nM and “*** (25%<Y<50%)”.
On to `C[C@@H]1CN(CCO[C@H]2CC[C@H](N3C(=S)N(c4ccc(C#N)c(Cl)c4)C(=O)C3(C)C)CC2)C[C@H](C)N1CC(=O)Nc1cccc(NC2CCC(=O)NC2=O)c1` (stereo partly drawn) [Cmpd 4, 2-((2R,6S)-4-(2-((trans-4-(3-(3-Chloro-4-cyanophenyl)-5,5-dimethyl-4-oxo-2-thioxoimidazolidin-1-yl)cyclohexyl)oxy)ethyl)-2,6-dimethylpiperazin-1-yl)-N-(3-((2,6-dioxopiperidin-3-yl)amino)phenyl)acetamide hydrochloride], for which the DC50 was at most 5 nM and the Y entry was “** (15%<Y≤20%)”.

The DC50 is the concentration giving 50% degradation.
